Reference: US12297192B2, “Crystal form of pyrimidine sulfonamide compound and preparation method therefor” (WUXI BIOCITY BIOPHARMACEUTICS CO., LTD., priority 2019, dated 2025)

How the values were obtained:
[1] = biological target: T1, Human Pregnane X Receptor (PXR) (Homo sapiens, UniProt O75469); test: Human pregnane X receptor (PXR) test, induction of PXR-mediated CYP3A expression in DPX2 cells; format: in vitro ADME
T1 construct: host or cells: DPX2 cells
T1 sequence (O75469 1-434): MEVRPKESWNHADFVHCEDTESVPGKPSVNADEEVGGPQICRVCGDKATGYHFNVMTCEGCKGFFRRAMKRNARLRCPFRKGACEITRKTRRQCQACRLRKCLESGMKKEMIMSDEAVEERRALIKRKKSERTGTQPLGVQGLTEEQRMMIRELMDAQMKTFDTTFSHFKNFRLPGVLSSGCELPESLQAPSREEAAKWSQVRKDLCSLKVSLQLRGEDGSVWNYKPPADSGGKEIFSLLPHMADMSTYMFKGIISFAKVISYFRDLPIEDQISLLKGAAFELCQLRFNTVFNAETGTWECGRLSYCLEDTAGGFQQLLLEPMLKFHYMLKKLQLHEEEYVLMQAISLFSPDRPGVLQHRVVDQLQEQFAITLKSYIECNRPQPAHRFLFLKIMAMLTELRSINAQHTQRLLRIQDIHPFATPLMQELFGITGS
Description: To assess the induction of PXR-mediated CYP3A expression by the compounds.
Experimental Protocol: • 1. The DPX2 cells was thawed under aseptic conditions. • 2. The DPX2 cytosol was distributed in 96-well plates (100 μl/well) and placed the plates in a 5% CO2/37° C. incubator overnight. • 3. The quantitative feeding medium was thawed in a 37° C. water bath. The positive control rifampicin was thawed at room temperature. A series of the test compound and positive control dilutions were prepared in quantitative feeding medium. The medium was carefully aspirated and discarded from each well, without disturbing the cells during the aspiration process. […] Enzyme activity test: • (1) 7 μl of Luciferin-IPA was added to 7 ml of quantitative feeding medium, inverted to mix, and poured into the Luciferin-IPA reagent tank. • (2) The 96-well plate was taken out of the incubator and the medium was carefully aspirated from each well. […] The plate was placed back to the incubator for 60 minutes. • (7) 40 μl of Luciferin detection reagent/P450-Glo buffer was added to each well of the replicate plate, stirred and incubated for 20 minutes at room temperature. • (8) After incubation with Luciferin detection reagent for 20 minutes, a luminometer (set for 1-5 seconds. Read out time) was used to determine the luminescence of each well of the white 96-well plate. […] The fluorescence intensity of each well was measured. […]

[2] = biological target: T2, bile salt export pump (BSEP) (Homo sapiens, UniProt O95342); test: Inhibition test on bile salt export pump (BSEP), taurocholic acid uptake in BSEP-Hi5-VT vesicles; format: in vitro ADME
T2 construct: purchased Solvo Biotechnology SB-BSEP-Hi5-VT; host or cells: Hi5 insect cells (read from the product name), membrane vesicles
Description: Compounds were diluted to 100 mM with DMSO; then subjected to a serial dilution of 3-fold for eleven dilutions. The minimum concentration was 0.169 μM. • 2. […] The minimum concentration was 19.5 μM. Experimental Protocol: • 1. ECHO was used to transfer 0.3 μl of DMSO solution of the compounds or diluted DMSO to the corresponding wells of the compounds plate, respectively. • 2. 14.7 μl of ATP Buffer was added into the corresponding wells of the compounds and the zero percent effect (ZPE), respectively. • 3. 14.7 μl of AMP Buffer was added into the corresponding wells of the hundred percent effect (HPE). • 4. The plate was shaken for 10 minutes at 25° C. • 5. 15 μl of BSEP-Hi5-VT Vesicle solution was added to each well separately and the plate was shaken for a further 40 minutes at 25° C. • 6. 5 μl of 0.5 M Ethylenediaminetetraacetic acid (EDTA) solution was immediately added to each well, followed by 65 μl of Buffer B. All reactions were complete. • 7. After the reactions were complete, 95 μl of liquid was transferred from the compounds plate to the filter plate using apparatus. • 8. The liquid receiving plate was placed under the filter plate. Then the liquid was removed using a centrifuge. The liquid on the receiving plate was discarded. • 9. 90 μl of Buffer B was added to the filter plate. The liquid receiving plate was placed under the filter plate. Then the liquid was removed using a centrifuge. The liquid on the receiving plate was discarded. The filter plate was washed three times in total. • 10. The filter plate was left to dry overnight. • 11. On the next day, 80 μl of methanol/water (80/20, v/v) solution was added to the filter plate. • 12. The plate was vibrated for 15 minutes after applying the film to the filter plate. • 13. […] Taurocholic acid in the receiving plate was determined using LC/MS/MS.
Several concentrations were tested in each experiment and the data was analyzed using Prism to produce a concentration-response curve to calculate the IC50 values of the compounds.

[3] = Pharmacokinetic evaluation in Beagle dogs; format: in vivo; details: for Bioavailability F: 3 mg/kg
Description: Male Beagle dogs were used as the test animals in this study. The LC/MS/MS method was applied to quantify the plasma drug concentrations in Beagle dogs at different time points after administration of the test compound by intravenous injection or oral gavage to evaluate the pharmacokinetic profile of the test compound in Beagle dogs.
Beagle dogs (Male, 6-15 kg, above 6 months, Beijing Marshall Biotechnology Co.)
A clear solution of the test compound was administered to the Beagle dogs by intravenous injection (overnight fasting) or oral gavage (overnight fasting). At 0 h (before administration by intravenous injection) and at 0.0833, 0.25, 0.5, 1, 2, 4, 6, 8 and 24 h after administration by intravenous injection, about 500 μL of blood was collected from peripheral blood vessels into anticoagulation tubes supplemented with EDTA-K2 (Jiangsu Kangjian Medical Supplies Co., Ltd.). At 0 hours (before administration by oral gavage) and 0.25, 0.5, 1, 2, 4, 6, 8 and 24 hours after administration by oral gavage, about 500 μL of blood was collected from peripheral blood vessels into anticoagulation tubes supplemented with EDTA-K2. The mixture in the anticoagulation tube was vortexed thoroughly at 4° C. and the plasma was then centrifuged at 13,000 rpm for 10 minutes to obtain the plasma. Blood concentrations were determined by LC/MS/MS and the relevant pharmacokinetic parameters were calculated using WinNonlin™ Version 6.3 (Pharsight, Mountain View, CA) pharmacokinetics software with a non-compartmental model linear-log trapezoidal method.

T2 sequence (O95342 whole entry): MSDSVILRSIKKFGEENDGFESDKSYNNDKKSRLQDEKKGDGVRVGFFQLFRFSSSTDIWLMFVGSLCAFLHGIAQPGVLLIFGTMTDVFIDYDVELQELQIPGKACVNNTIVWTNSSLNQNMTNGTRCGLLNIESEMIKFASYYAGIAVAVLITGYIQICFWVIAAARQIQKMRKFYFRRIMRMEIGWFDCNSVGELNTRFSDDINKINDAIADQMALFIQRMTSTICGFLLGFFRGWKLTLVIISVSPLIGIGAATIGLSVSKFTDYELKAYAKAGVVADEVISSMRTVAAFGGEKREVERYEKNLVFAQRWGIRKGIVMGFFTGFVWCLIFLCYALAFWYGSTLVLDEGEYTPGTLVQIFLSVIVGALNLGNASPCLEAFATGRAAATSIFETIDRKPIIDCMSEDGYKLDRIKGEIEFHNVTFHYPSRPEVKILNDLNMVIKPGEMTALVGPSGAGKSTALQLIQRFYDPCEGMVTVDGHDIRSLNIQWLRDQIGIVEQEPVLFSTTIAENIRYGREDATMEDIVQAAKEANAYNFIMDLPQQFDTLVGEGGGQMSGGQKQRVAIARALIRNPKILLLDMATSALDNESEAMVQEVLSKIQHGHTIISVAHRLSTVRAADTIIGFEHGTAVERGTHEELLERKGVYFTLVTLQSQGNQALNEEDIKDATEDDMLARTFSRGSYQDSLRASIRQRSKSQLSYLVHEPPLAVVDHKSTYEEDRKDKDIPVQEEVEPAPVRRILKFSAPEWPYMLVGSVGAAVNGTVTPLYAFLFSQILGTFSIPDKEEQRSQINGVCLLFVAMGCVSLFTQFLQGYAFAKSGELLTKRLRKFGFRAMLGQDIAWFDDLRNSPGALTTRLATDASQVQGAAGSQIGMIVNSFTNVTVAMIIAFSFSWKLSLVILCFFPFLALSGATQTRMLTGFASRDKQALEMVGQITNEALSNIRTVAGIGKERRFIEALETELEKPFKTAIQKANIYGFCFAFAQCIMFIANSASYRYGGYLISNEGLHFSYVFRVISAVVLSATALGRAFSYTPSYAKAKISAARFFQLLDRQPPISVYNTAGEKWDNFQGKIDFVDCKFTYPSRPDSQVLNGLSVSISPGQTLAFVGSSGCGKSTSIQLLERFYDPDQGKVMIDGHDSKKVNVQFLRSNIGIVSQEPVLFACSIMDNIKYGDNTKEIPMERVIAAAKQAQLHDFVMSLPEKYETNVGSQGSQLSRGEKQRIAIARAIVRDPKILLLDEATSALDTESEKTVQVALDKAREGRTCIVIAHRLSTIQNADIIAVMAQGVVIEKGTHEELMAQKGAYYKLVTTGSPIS

SMILES | Induction of PXR-mediated CYP3A expression (in words) [1] | Inhibitory effect on bile salt export pump (in words) [2] | Area under the drug concentration-time curve ([3]; intravenous injection 1 mg/kg) [µM·h] | Area under the drug concentration-time curve ([3]; oral 3 mg/kg) [µM·h] | Peak concentration ([3]; oral 3 mg/kg) [µM] | Peak time ([3]; oral 3 mg/kg) [h] | Bioavailability F ([3]; oral 3 mg/kg) [%] | Bioavailability F ([3]; oral 3 mg/kg, listed as compound of formula (I)) [%] | IC50 ([2]; taurocholic acid substrate, BSEP-Hi5-VT vesicles) [nM]
COCCNS(=O)(=O)Nc1ncnc(OCCOc2ncc(Br)cn2)c1-c1ccc2c(c1)OCO2 [Compound of formula (I)] | weak induction | extremely weak inhibitory effect | 7.56 | 33.40 | 12.75 | 0.38 | 147 | > 50 | –
CCCNS(=O)(=O)Nc1ncnc(OCCOc2ncc(Br)cn2)c1-c1ccc(Br)cc1 [Macitentan, reference compound] | strong induction | strong inhibitory effect | – | – | – | – | – | – | 470
